Consider four molecules from patent US20220249525A1, “Fatty Acid Compounds for Prevention and Treatment of Neurodegenerative Disorders” (T OMEGA AS, priority 2019, published 2022).

Assay type in all cases: cell-based
Assay [1] relates to HCC827 cells. Nature of the assay: Resazurin conversion cell viability/proliferation assay in HCC827 cells. The note with it: for overall effects on cell viability and mitochondrial function (summary): cultured cells, relatively high dosage. The method, then:
(§1) Non-small cell lung cancer cells, HCC827 (ATCC) were cultured in RPMI-1640 Glutamax medium (Sigma-Aldrich St. Louis, Mo., USA), under conventional culture conditions. Media was supplemented with 10% Fetal Bovine Serum (FBS), 1% glutamine and 1% streptomycin/penicillin (Sigma-Aldrich). HeLaNRF1/c4 reporter cells were cultured in Dulbecco's Modified Eagle's Medium (DMEM) supplemented with 10% FBS, 2 mM L-Glutamine, 100 u/ml penicillin/streptomycin (Sigma-Aldrich,). Incubation was done at 37° C. in 5% CO2.
(§2) Cell viability/proliferation was determined by the resazurin conversion assay. A total of 4000 cells were seeded in each of the 96-well plates in 100 μl of medium. After 3 hours of incubation, 100 μl of fresh medium with respective concentration of the desired compound or controls were added. Resazurin solution (Sigma-Aldrich) was added (10%, v/v in PBS) after 1 or 3 day treatment, followed by 3 hour incubation at 37° C. and 5% CO2. Resazurin fluorescence (excitation, 540 nm; emission, 590 nm) was measured and measurements were corrected for background signals. […] Relative viability was calculated from percent fluorescence relative to DMSO-treated control wells.

Assay [2] relates to HeLaNRF1/c4 reporter cells. Nature of the assay: Resazurin conversion assay in HeLaNRF1/c4 reporter cells. The note with it: test compounds 30 μM and 60 μM, long treatment. The method, then: as §1, §2
In order to investigate if some of the compounds induce metabolic adaptations involving mitochondrial biogenesis, we employed the HeLaNRF1/c4 reporter cells in which activation of the transcription factor NRF1 triggers expression of GFP. Since adaptations of mitochondrial biogenesis are known to require some days to develop, we used a relatively low dosage (30 μM and 60 μM) of the compounds, to allow longer treatment period compared to the previous short term experiments.
Background: Resazurin is reduced to fluorescent resorufin, in cell work by metabolically active cells.

Assay [3] deals with HeLaNRF1/c4 reporter cells. The assay is described as follows: Gene expression (qPCR) in HeLaNRF1/c4 reporter cells. The note with it: long-term treatment. As to the method: The HeLaNRF1/c4 reporter cells were employed to investigate effects of the modified fatty acids on NRF1-regulated mitochondrial biogenesis. The cells (250,000) were seeded in T75 flasks and incubated for 3 hours to allow attachment. The compounds were dissolved in DMSO and diluted in culture medium to provide the final concentration. DMSO at a concentration equivalent to the highest compound concentration was added to control cultures. Resveratrol and AICAR were used as positive controls. Resveratrol has not previously been tested in this reporter model, but we found it relevant to include it for purposes of experimental and mechanistic comparisons. After 3 days of treatment the media was replaced with fresh media containing the corresponding compound. On day 5, the cells were harvested and the cultures split into three fractions: One fraction was used for detection of mitoGFP expression by flow cytometry, to assess effects on NRF-1 regulated mitochondrial biogenesis. Flow cytometry analysis was performed as previously described. Another fraction was used for extraction of RNA and subsequent gene expression analysis using quantitative PCR (see below). The last fraction was employed to investigate effects on mitochondrial respiratory function by extracellular flux analysis (described above). The experiment was replicated three times.
Total RNA was extracted from harvested cells (RNAeasy kit Qiagen, Hilden, Germany). The RNA content was quantified on Nanodrop 1000 Spectrophotometer (Thermo Scientific). From 1 μg total RNA, cDNA was synthesized using High-Capacity Reverse Transcription Kit (Applied Biosystems, Carlsbad, Calif., US). Gene quantification was done using TaqMan probes for gene expression assays (Applied Biosystems). Probes used were: PGC1α (PPARG coactivator 1α), Hs00173304_m1; HIF1α (hypoxia inducible factor 1α), Hs00153153_m1; PDK1 (pyruvate dehydrogenase kinase 1), Hs01561847_m1; PDK4, (pyruvate dehydrogenase kinase 4), Hs01037712_m1; SIRT4 (sirtuin 4) Hs01015516_g1; ACOX1 (acyl-CoA oxidase 1) Hs01074241_m1; as reference genes, we used; Eukaryotic 18S rRNA Hs99999901_s1; actin beta Hs99999903_m1. Fold change was calculated as geometric mean of ΔΔCt of the two reference genes.

For assay [4], the system named is HCC827 cells. The assay is described as follows: Mitochondria respiration assay (OCR, extracellular flux) in HCC827 cells. As to the method: as §1
Mitochondria function was analyzed by measuring oxygen consumption rate (OCR) by extracellular flux analysis in a Seahorse XFe96 instrument (Agilent Seahorse XF Technologies). The measurements were performed in DADA basic media without phenol red, supplemented with L-glutamine (2 mM), pyruvate (2 mM), and sodium chloride, NaCl (32 mM) (Sigma-Aldrich). Respiratory rates were measured following sequential additions of glucose (10 mM), oligomycin, carbonyl cyanide m-chlorophenyl hydrazine (CCCP) and a mixture of rotenone (1 μM) and antimycin A (1 μM). Before carrying out the measurements for each cell model, optimizations were done for; cell number, CCCP, and oligomycin concentrations. For the HCC 827 cell model optimal conditions were; 30,000 cells/well, 0.5 μM CCCP, and 3 μM Oligomycin; and in HeLaNRF1/c4 reporter cell model; 20,000 cells/well, 1 μM CCCP and 3 μM Oligomycin. The OCR measured initially (before any additions) represented the rate ‘basal respiration.’ The addition of ATP synthase inhibitor oligomycin provided oxygen consumption independent of ATP production (‘leak activity’). Maximal respiration (also referred to as ‘respiratory capacity’) was measured upon addition of the uncoupler CCCP. […] After the extracellular flux analysis the analysis plates were washed with Phosphate Buffered Saline (PBS) and frozen at −80° C. The BCA assay (Pierce BCA protein assay kit, Thermo Fisher Scientific, Waltham, Mass. USA) was employed to measure the protein content in the wells. To evaluate the effects of the different treatments, the respiratory rates from compound-treated wells were normalized to protein content, and calculated as percentage of the average respiratory rate of the DMSO-treated control wells. All treatments were performed with 6-8 replicate wells.

SMILES strings stand for the structures.

Regarding `CCCC(SCC)C(=O)O` (stereo not drawn) [2-(ethylthio) pentanoic acid, 2-(ethylthio)pentanoic acid], the “overall effects on cell viability and mitochondrial function (summary)” value (“overall effects” for short) in the assay with HCC827 cells [1] is on record as “only minor effects”.

For `C#CCCCCCCCCCCCNCC(=O)O` [2-triple TDG, N-(tridec-12-yn-yl) glycine], the resazurin conversion entry in assay [2] is listed as “no significant effect”. For the same molecule, in the assay with HCC827 cells [1], the “overall effects” value is listed as “harmful effects were significantly reduced”. In assay [3], the PDK4 expression entry was “moderate effect”.

As to `Oc1ccc(C=Cc2cc(O)cc(O)c2)cc1` [resveratrol, Resveratrol, reference compound], the resazurin conversion result in assay [2] was “moderate reduction”. Further, in the assay with HCC827 cells [4] (compared to control), the “basal respiratory rate (OCR)” value was “little or no effect”.

On to `CC#CCCCCCCCCCCCSCC(=O)O` [2-triple TTA, 2-(Tetradec-12-yn-1-ylthio)acetic acid], for which the resazurin conversion result in assay [2] is recorded as “little or no effect”. The “uncoupled respiratory capacity after CCCP” value in the assay on HCC827 cells [4] is on record as “stronger dose-dependent effect”. Besides, the “leak respiration after oligomycin” value in the assay with HCC827 cells [4] (100 μM TTA, 200 μM 2-triple TTA, 30 μM TDG) is “significantly increased”. In addition, the “viability (resazurin conversion)” value in the assay with HCC827 cells [1] (HCC827 cells, 200 μM) is “moderate antiproliferative effect”. Further, in the assay on HCC827 cells [1], the “overall effects” value is recorded as “harmful effects were significantly reduced”. Also, in assay [3], the PDK4 expression entry is on record as “moderate effect”.
